Measured values reported in publication PMC9011347, “Small-Molecule Inhibitors Targeting Lipolysis in Human Adipocytes” (Journal of the American Chemical Society, 2022).

Assay: Stability of NG-497 exposed to HepG2 cells
Assay type: in vitro ADME
Conditions: human, cells treated 1 h with 40 μM NG-497, inhibitor removed, DMEM 10% FCS, read-out: half-life (T1/2) when exposed to HepG2 cells
Procedure: Figure 2 Development and characterization of the human ATGL inhibitor NG-497. (a) Structure and IC50 values of human ATGL inhibitors. (b) Dose-dependent inhibition of human ATGL by respective inhibitors. (c) ATGL activity was determined at the indicated substrate concentrations in the absence and presence of NG-497 (0.5 μM). Ki was determined by nonlinear regression analysis using GraphPad Prism. Lineweaver–Burk analysis of ATGL inhibition is shown in the inset. (d) Toxicity of NG-497 in HepG2 cells was determined after 24 h incubation at indicated concentrations. Cisplatin and DMSO were used as positive and negative controls, respectively. Cytotoxicity was determined using the Roche LDH Kit and calculated as relative LDH release compared to fully lysed cells. (e) Stability of NG-497 was analyzed via ultrahigh-performance liquid chromatography–mass spectrometry (UHPLC-MS) after incubation in human serum for 0 or 3 h at 37 °C. Atglistatin and a chemically related unstable compound were used as controls. […] NG-497 concentrations/well were determined at the indicated time points using UHPLC-MS. […] Statistical significance was determined via t test (*p < 0.05; **p < 0.01; ***p < 0.001) or ANOVA followed by Bonferroni post hoc test (^###p < 0.001). […] The detected 297 lipid species of both groups were analyzed with supervised multivariate analysis OPLS-DA and are shown as a loading plot. […]

## CCOc1ccc(-c2cc(OC)cc(C(=O)OC(C)C)n2)cc1 [NG-497]
  half-life at 40 µM: 46 min
